Source: patent KR20190134073A, “셀레질린을 유효성분으로 포함하는 급성 골수성 백혈병의 예방 또는 치료용 약학 조성물” (충남대학교산학협력단, priority 2018, dated 2019)

Legend:
Type in all cases: cell-based
[1] = test system: KG-1α cells (refractory or relapsed acute myeloid leukemia cells) [불응성 또는 재발성 급성 골수성 백혈병 세포(KG-1α)]; assay: Cell viability (CCK-8) in refractory/relapsed AML cells KG-1α; details: for viability at 500 µM / viability at 1000 µM / viability at 2000 µM / viability at 4000 µM: Homo sapiens, KG-1, 24 h, read-out: cell viability; for cell killing effect: KG-1α, 0.5, 1, 2 and 4 mM, 24 h, in words
[2] = test system: U937 cells (acute myeloid leukemia cells) [급성 골수성 백혈병 세포(U937)]; assay: cells; details: for cell killing effect: acute leukemia cells (U937), 0.5, 1, 2 and 4 mM, 24 h, in words
[3] = test system: K562 cells (chronic myeloid leukemia cells) [만성 골수성 백혈병 세포(K562)]; assay: Cell viability (CCK-8) in CML cells K562; details: K562 vs U937 or KG-1α; 0.5, 1, 2 and 4 mM; 24 h; in words, not shown in Table 1
[4] = test system: KG-1α cells (refractory or relapsed acute myeloid leukemia cells) [불응성 또는 재발성 급성 골수성 백혈병 세포(KG-1α)]; assay: Change of mitochondrial oxygen consumption rate in KG-1α cells; details: 0, 0.5, 1, 2, 4 mM, 20 min, FIG. 2, in words
[5] = test system: KG-1α cells (refractory or relapsed acute myeloid leukemia cells) [불응성 또는 재발성 급성 골수성 백혈병 세포(KG-1α)]; assay: Change of ATP production in KG-1α cells (ATPlite 1step kit); details: 4 mM, 20 min, 37℃, control PBS, FIG. 3, in words
[6] = Homo sapiens, U-937, 24 h, read-out: cell viability

Structure (SMILES) | viability at 500 µM [1] | viability at 1000 µM [1] | viability at 2000 µM [1] | viability at 4000 µM [1] | cell killing effect [1] | viability at 500 µM [2, 6] | viability at 1000 µM [2, 6] | viability at 2000 µM [2, 6] | viability at 4000 µM [2, 6] | cell killing effect [2] | cell killing effect in K562 compared with U937 or KG-1α [3] | oxygen consumption rate [4] | ATP production [5]
Nc1ccn([C@@H]2O[C@H](CO)[C@@H](O)[C@@H]2O)c(=O)n1 [시타라빈] | 95.2% | 96.9% | 97.7% | 95.3% | 세포 사멸 효과를 나타내지 않은 | 45.3% | 43.9% | 40.9% | 40.7% | 세포 사멸 효과는 우수하였으나 | – | – | –
C#CCN(C)[C@H](C)Cc1ccccc1 [셀레질린, selegiline] | 93.1% | 86% | 63% | 51.8% | 세포 사멸 효과가 우수하게 나타남 | – | – | – | – | 세포 사멸 효과를 모두 나타내는 것 | 만성 골수성 백혈병 세포(K562)에 대한 세포 사멸 효과 보다는 급성 골수성 백혈병 세포(U937) 또는 불응성 또는 재발성 급성 골수성 백혈병 세포(KG-1α)에 대한 세포 사멸 효과가 우수하였다 | 산소 소모율이 농도 의존적으로 감소함 | ATP 생성이 감소됨
